Assay results published in US20260374818A1, “CATIONIC PEPTIDES WITH BROAD SPECTRUM ACTIVITY” (priority 2023, published 2026).
pIC50: −log10 of the molar value. In brackets after ≈: the same amount, converted by molar mass. Where a SMILES comes first, the peptide text is derived from it. [ ]: non-standard residue; d: D form.

Columns and labels:
MRSA USA 300 = assay: MIC (broth microdilution) of peptides, MRSA; assay type: cell-based, methicillin resistant Staphylococcus aureus; details: MRSA USA300; mode of three biological replicates
Method: (§1) Minimal inhibitory concentration (MIC) against planktonic bacteria: The MIC of the synthetic peptides was determined in Mueller-Hinton broth (MHB) using the broth microdilution method described previously [Wiegand, I., Hilpert, K., & Hancock, R. E. (2008). Agar and broth dilution methods to determine the minimal inhibitory concentration (MIC) of antimicrobial substances. Nature Protocols, 3(2), 163-175]. Briefly, 10 μl of a 10× concentrated peptide solution was placed in the bottom of a well in a 96-well polypropylene round bottom plate (Corning Inc.). A bacterial suspension of ~5×10^5 CFU/ml was prepared from an overnight culture and 90 μl of this was added to each well. […] Bacteria tested included P. aeruginosa PAO1, MRSA USA300 LAC, Staphylococcus haemolyticus, Staphylococcus epidermidis, Klebsiella pneumoniae and Streptococcus salivarius.
(§2) Finally, the AB103-D derivatives that were the least aggregation prone and which produced the lowest toxic effects in vivo were evaluated for their direct antibacterial activity towards several pathogens of clinical relevance using a standard minimum inhibitory concentration (MIC) assay [Wiegand, I., Hilpert, K., & Hancock, R. E. (2008). Agar and broth dilution methods to determine the minimal inhibitory concentration (MIC) of antimicrobial substances. Nature Protocols, 3(2), 163-175]. Specifically, peptides AB110-D, AB111-D, AB114-D and AB115-D were tested against P. aeruginosa PAO1, MRSA USA 300, Staphylococcus haemolyticus, Staphylococcus epidermidis, Klebsiella pneumoniae and Streptococcus salivarius and compared against the antibacterial activity of DJK-5 and AB103-D (Table 7). Overall, the antibacterial potency of all of the AB103-D derivatives was stronger than that seen for DJK-5, particularly in the case of the Gram-negative pathogens P. aeruginosa and K. pneumoniae. […]

[1] = system: Staphylococcus haemolyticus; assay: MIC (broth microdilution) of peptides, S. haemolyticus; assay type: cell-based; details: mode of three biological replicates
Method: as §1, §2

[2] = system: Enterococcus faecium #2-1; assay: Biofilm inhibition (at least 80%), E. faecium; assay type: cell-based; details: E. faecium #2-1; n = 3; TSB + 1% glucose; 48 hours; crystal violet
MRSA USA300 = assay: Biofilm inhibition (at least 80%), MRSA; assay type: cell-based, methicillin resistant Staphylococcus aureus; details: n = 4, 10% TSB + 0.1% glucose, 18-24 hours, crystal violet
[3] = system: Enterobacter cloacae 218R1; assay: Biofilm inhibition (at least 80%), E. cloacae; assay type: cell-based; details: E. cloacae 218R1; n = 3; BM2 minimal media; 18-24 hours; crystal violet
[4] = Peptide aggregation in RPMI + 10% FBS with PBMCs (microscopy); assay type: physicochemical; details: 50 μg/ml, overnight
Summary of the method: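 Peptides added to human PBMCs in RPMI with 10% FBS, incubated overnight at 37 °C, 5% CO2; aggregation assessed qualitatively by inverted light microscopy at 10× magnification.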

[5] = Subdermal murine toxicity model; details: for Clinical score: 1 hour after subcutaneous administration, comparator DJK-5
Method: FIGS. 14A-14B show murine subdermal toxicity assessment of AB103-D derived peptides. Clinical scores were recorded for each peptide treated mouse one hour after peptide administration (FIG. 14A). […] The presence of a cyst or lesion was recorded 16 hours after peptide administration and the size of the cyst was measured using calipers (FIG. 14B). Data shown are the mean of two independent replicates at a peptide dose of 4 mg/kg.
Subdermal murine toxicity model: A subdermal toxicity mouse model was used to evaluate whether peptides induced localized toxicity of treated cutaneous tissue. Mice were anesthetized with 2.5-3% isoflurane and their fur was removed by shaving followed by application of a chemical depilatory. […] Mice were visually assessed and received clinical scores for a battery of signs or symptoms (activity/behaviour change, appearance/grooming, hydration, pain, cyst formation), for which a score of zero was given to animals that appeared normal. Animals were weighed and clinical scores were totalled. Following an overnight (16 h) incubation, mice were scored and weighed then euthanized with CO2 followed by cervical dislocation. Mice were imaged and cysts (swollen, inflamed tissue) were measured using a caliper. Animal experiments were performed in accordance with the Canadian Council on Animal Care (CCAC) guidelines and were approved by the University of British Columbia Animal Care Committee. Female CD-1 mice were purchased from Charles River Laboratories, Inc. (Wilmington, MA). All mice were 8 weeks of age and weighed 25±5 g at the time of the experiment. Animals were group housed in cohorts of three to four littermates. Standard animal husbandry practices were employed.

PAO1 preformed biofilms = details: for pIC50: read-out: Biofilm Eradication IC50, PAO1, 24-hr preformed biofilms treated overnight, TTC

Compound | MIC (MRSA USA 300) | MIC [1] | Peptide/Antibiotic Concentration where at least 80% of biofilm growth was inhibited [2] | Peptide/Antibiotic Concentration where at least 80% of biofilm growth was inhibited (MRSA USA300) | Peptide/Antibiotic Concentration where at least 80% of biofilm growth was inhibited [3] | Peptide aggregation [4] | Clinical score [5] | Average cyst size compared to DJK-5 ([5]; 16 hours after administration, 4 mg/kg) | Enhanced antibiofilm eradication activity (PAO1 preformed biofilms; P. aeruginosa, compared with DJK5) | pIC50 (PAO1 preformed biofilms)
CC[C@@H](C)[C@@H](NC(=O)[C@@H](C)NC(=O)[C@@H](CCCNC(=N)N)NC(=O)[C@@H](Cc1c[nH]c2ccccc12)NC(=O)[C@@H](CCC(N)=O)NC(=O)[C@H](NC(=O)[C@@H](CCCNC(=N)N)NC(=O)[C@H](NC(=O)[C@H](NC(=O)[C@@H](CCCNC(=N)N)NC(=O)[C@H](NC(=O)[C@H](N)CCCNC(=N)N)C(C)C)C(C)C)[C@H](C)CC)C(C)C)C(N)=O [AB103-D, rvrvirvqwrai-NH2] (H-[dR][dV][dR][dV][dI][dR][dV][dQ][dW][dR][dA][dI]-NH2) | 0.8 µg/mL (≈ 0.516 µM) | 0.8 µg/mL (≈ 0.516 µM) | 1 µg/mL | 0.5 µg/mL | 1 µg/mL | some small aggregates | < 2 | smaller than those induced by DJK-5 | > 2 fold | 5.77
CC[C@@H](C)[C@@H](NC(=O)[C@@H](C)NC(=O)[C@@H](CCCNC(=N)N)NC(=O)[C@@H](Cc1c[nH]c2ccccc12)NC(=O)[C@@H](CCC(N)=O)NC(=O)[C@H](N)C(C)C)C(=O)N[C@H](CCCNC(=N)N)C(=O)N[C@@H](C(=O)N[C@H](CCCNC(=N)N)C(=O)N[C@@H](C(=O)N[C@@H](C(=O)N[C@H](CCCNC(=N)N)C(N)=O)[C@H](C)CC)C(C)C)C(C)C [DJK5, vqwrairvrvir-NH2] (H-[dV][dQ][dW][dR][dA][dI][dR][dV][dR][dV][dI][dR]-NH2) | 0.8 µg/mL (≈ 0.516 µM) | 0.8 µg/mL (≈ 0.516 µM) | 1 µg/mL | 1 µg/mL | 2 µg/mL | No appreciable aggregation | 2 |  |  | 5.42
